Measurements taken from patent US6989377B2, “Treating vitamin D responsive diseases” (priority 1999, dated 2006).

How the values were obtained:
Format in all cases: in vivo, mouse
[1] = tested on: DS-induced colitis in C3H/HeJ male mice; test: Calcitriol prevention of DS-induced colitis; details: 50 ng/day in diet from day −7; 1% DS days 0 to 5; terminated day 27
C3H/HeJ male mice = test: Serum calcium after calcitriol feeding, C3H/HeJ male mice
Description: In order to determine serum calcium, blood was collected, allowed to clot, and centrifuged (5,000×g for 10 minutes) at 6° C. The serum was decanted and stored frozen at −20° C. The samples, standards, and buffer blanks (2 μL each) were aliquoted into duplicate wells of a 96-well plate. Calcium reagent working solution (0.25 mL), prepared according to the manufacturer's directions (Sigma Diagnostics, St. Louis, Mo.), was added to each well, and the absorbance at 570 nm was measured.

[2] = tested on: chronic DS-induced IBD in C3H/HeJ male mice; test: Calcitriol treatment of chronic DS-induced colitis
Description: Fecal hemoglobin was analyzed in the mice to determine bleeding from a breached intestinal barrier. […] Co., Needham Heights, Mass.), the supernatants were decanted into fresh tubes and stored frozen at -20° C. Hemoglobin in the supernatants was analyzed by a method adapted from Saitoh et al., Digestion, 56:67-75, 1995, and Liem et al., Anal. Biochem., 98:388-393, 1979, with rat hemoglobin as standard (Sigma-Aldrich). The supernatants were diluted 1:25 in TBS. […] The reaction was stopped with 100 μL of 2 M phosphoric acid, and the absorbance at 450 nm was measured with an MRX Revelation Microplate Reader (DYNEX Technologies). […] The mice were euthanized with an i.p. injection of pentobarbital. […] The fixed tissue was embedded in paraffin, sectioned at 6 μm, stained with hematoxylin and eosin, and examined by light microscopy. Scoring was conducted by a veterinary pathologist in blinded fashion. […] Clin. Invest., 98:1010-1020, 1996. The scores were summed to provide a total colitis score for each mouse. […] The serum was decanted and stored frozen at -20° C. The samples, standards, and buffer blanks (2 μL each) were aliquoted into duplicate wells of a 96-well plate. Calcium reagent working solution (0.25 mL), prepared according to the manufacturer's directions (Sigma Diagnostics, St. Louis, Mo.), was added to each well, and the absorbance at 570 nm was measured. […] In particular, age-matched adult C3H/HeJ male mice were subjected to three DS treatment cycles treatment separated by 6-8 weeks. […] Between treatments, the mice were fed laboratory mouse chow. These treatments induced chronic IBD. Beginning 10 days after the last DS treatment was completed, the mice were divided into two groups. The groups were matched with respect to fecal Hg and weight (Table 6). Group A was fed synthetic diet and group B was fed calcitriol in synthetic diet. The experiment was terminated 21 days later.

[3] = 50 ng/day after cycle 3, 21 days, 3 cycles of 1% DS
[4] = 50 ng/day after cycle 3, 3 cycles of 1% DS

## C=C1/C(=C\C=C2/CCC[C@]3(C)[C@@H]([C@H](C)CCCC(C)(C)O)CC[C@@H]23)C[C@@H](O)C[C@@H]1O [Calcitriol, 1,25 dihydroxyvitamin D3]
[1]
  Terminal weight: 28.0 ± 2.9 g
C3H/HeJ male mice; 10 ng/d for two weeks
  Serum Calcium C3H/HeJ male: 10.5 ± 2.1 mg/dL
C3H/HeJ male mice; 20 ng/d for two weeks
  Serum Calcium C3H/HeJ male: 10.1 ± 2.7 mg/dL
C3H/HeJ male mice; 50 ng/d for two weeks
  Serum Calcium C3H/HeJ male: 9.9 ± 0.6 mg/dL
C3H/HeJ male mice; 100 ng/d for two weeks
  Serum Calcium C3H/HeJ male: 10.1 ± 1.8 mg/dL
C3H/HeJ male mice; mouse, in vivo
  Tolerability of the calcitriol doses: well tolerated
[2]; [3]
  Terminal serum calcium: 10.3 ± 1.1 mg/dL
  Terminal weight: 35.1 ± 4.0 g
[2]; [4]
  Colon Histopathology, Distal colon: 1 ± 1
  Colon histopathology, Medial colon: 1 ± 1
  Colon histopathology, Proximal colon: 2 ± 1
  Colon histopathology, Rectum: 2 ± 1
  Colon histopathology, Sum: 6 ± 2
[2]; DS cycle 3, before calcitriol was started (groups matched for fecal Hg)
  Hemoglobin in Stool (DS cycle 3): 9 ± 10 mg/g
[2]; calcitriol in synthetic diet for 21 days
  Effect on severity of chronic DS-induced IBD: reduced the severity of chronic DS-induced IBD
[2]; treated with calcitriol for 21 days
  Reduction in colon histopathology: approximately 45%
